Results on 4 molecules are retold here after patent publication US7579349B2, “4-(pyrazol-3-ylamino) pyrimidine derivatives for use in the treatment of cancer” (AstraZeneca AB, priority 2003, dated 2009).

The subject of this assay is murine fibroblasts (NIH3T3) over-expressing human IGF-1 receptor. Briefly: Inhibition of IGF-stimulated cell proliferation (BrdU incorporation), Test (c). Format: cell-based. The following applies: inhibition of IGF-stimulated proliferation in NIH3T3 over-expressing human IGF-1 receptor. The protocol: c) Inhibition of IGF-stimulated Cell Proliferation
The construction of murine fibroblasts (NIH3T3) over-expressing human IGF-1 receptor has been described by Lammers et al (EMBO J, 8, 1369-1375, 1989). These cells show a proliferative response to IGF-I which can be measured by BrdU incorporation into newly synthesised DNA. Compound potency was determined as causing inhibition of the IGF-stimulated proliferation in the following assay:
Compounds are initially dissolved in DMSO to 10 mM, followed by dilutions in DMEM+1% FCS+glutamine to give a range from […] in 1-0.00045% DMSO final concentration in assay well.
Exponentially growing NIH3T3/IGFR cells were harvested and seeded in complete growth medium into a flat-bottomed 96 well tissue culture grade plate (Costar 3525) at 1.2×10^4 cells per well in a volume of 100 μl.
Growth medium was carefully removed from each well using a multi-channel pipette. Wells were carefully rinsed three times with 200 μl with HBSS. 100 μl of starvation medium was added to each well and the plate was re-incubated for 24 hours.
50 μl of a 4× concentrate of test compound was added to appropriate wells. Cells were incubated for 30 minutes with compound alone before the addition of IGF. For cells treated with IGF, an appropriate volume (i.e. 25 μl) of starvation medium was added to make a final volume per well up to 200 μl followed by 25 μl of IGF-1 at 160 ng/ml (to give a final concentration of 20 ng/ml). […] The plate was re-incubated for 20 hours.
The incorporation of BrdU in the cells (after a 4 h incorporation period) was assessed using the BrdU Cell Proliferation Elisa according to the manufacturer's protocol.
A general note: Uptake of a labelled nucleoside into DNA is a usual measure of proliferation.

The molecule `Clc1cnc(N2CCCC2c2cc(C3CC3)no2)nc1Nc1cc(C2CC2)[nH]n1` (stereo not shown) [Example 5, 5-Chloro-2-[2-(3-cyclopropylisoxazol-5-yl]pyrrolidin-1-yl]-4-(5-cvlopropyl-1H-pyrazol-3-ylamino)phyrimidine] came in with an IC50 of 0.13 µM.
For the molecule `Cc1cc(Nc2ccnc(N3CCCC3c3cc(-c4ccccn4)no3)n2)n[nH]1` (stereo not shown) [Example 23, 4-(5-Methyl-1H-pyrazol-3-ylamino)-2-{2-[3-(pyrid-2-yl)isoxazol-5-yl]pyrrolidin-1-yl}pyrimidine], half-maximal inhibition (Mus musculus) (IC50) was put at 0.11 µM.
`Cc1cc(Nc2nc(N3CCC[C@H]3c3cc(-c4nccs4)no3)ncc2Cl)n[nH]1` [Example 38, S-5-Chloro-2-{2-[3-(thiazol-2-yl)isoxazol-5-yl]pyrrolidin-1-yl}-4-(5-methyl-1H-pyrazol-3-ylamino)pyrimidine] returned a concentration for half-maximal inhibition (IC50) of 0.054 µM.
With `Cc1cc(Nc2cc(C(F)(F)F)nc(N3CCCC3c3cc(-c4ccccn4)no3)n2)n[nH]1` (stereo not shown) [Example 35, 4-(5-Methyl-1H-pyrazol-3-ylamino)-2-{2-[3-(pyrid-2-yl)isoxazol-5-yl]pyrrolidin-1-yl}-6-trifluoromethylpyrimidine], where the note is “Mus musculus”, the IC50 is 0.56 µM.

The IC50 is the concentration at which inhibition is half-maximal. Higher therefore signals weaker potency in that assay.
